Data published in patent US7371529B2, “Methods and compositions for modulating gluconeogenesis using PGC-1” (Dana-Farber Cancer Institute, Inc., priority 2001, dated 2008).

How the values were obtained:
[1] = tested on: G6 Pase, PEPCK and PGC-1 mRNA; test: Insulin effect on mRNA levels and PGC-1 function in cultured liver cells; format: cell-based; details: for PGC-1 induced expression of PEPCK and glucose-6-phosphatase: cultured liver cells
Description: This example describes experiments designed to determine whether insulin acts directly to suppress PGC-1 expression or function. The levels of PGC-1 mRNA were first examined in cells treated with various combinations of insulin, forskolin, and dexamethasone.
However, PGC-1 function is negatively regulated by insulin in cultured liver cells. […] FKHR is regulated directly by Akt via phosphorylation. Stimulation by insulin results in activation of Akt, which phosphorylates FKHR, which in turn inactivates FKHR by causing it to exit the nucleus. Insulin treatment downregulates the ability of PGC-1 to induce the gluconeogenic genes PEPCK and glucose-6-phosphatase. PGC-1 induced expression of the genes was […] when a constitutively active FKHR was used, while a dominant-negative FKHR also downregulates the ability of PGC-1 to induce these genes, even in the absence of insulin.

PGC-1 = test: STZ-diabetic mouse, liver PGC-1 (Northern); format: in vivo; details: STZ-diabetic mice, after 10 days
Description: For the feeding experiments, male mice were either allowed free access to food or subjected to a 24 hour fast and sacrificed at the end of 24 hours. A third group was fasted for 24 hours and then fed ad libitum for another 24 hours prior to sacrifice. For the STZ-diabetic mouse experiments, 6-8 week old male mice (n=3 per group) were injected intraperitoneally for three consecutive days with either sodium citrate solution or streptozotocin ([…] of body weight per injection). Animals were sacrificed after 10 days, at which point the mean blood glucose in the STZ-treated group rose to over 400 mg/dl. For the LIRKO mouse experiments, two-month-old female control (lox/lox) or LIRKO mice were divided into three groups (n=2 each) and subjected to the standard feeding protocol as described above.
Total RNA was prepared from cells or tissues with Trizol (Life Technologies) according to the manufacturer's instructions. Ten to twenty micrograms of total RNA was fractionated in a 1% agarose-formaldehyde gel, transferred onto nylon, and hybridized with cDNA probes labeled by random-primed labeling (Boehringer Mannheim) with [-^32P]-dCTP, using methods known in the art. […]

FKHR [2] = test: 3×IRS promoter-luciferase reporter, FKHR coactivation; format: cell-based; details: PGC-1 cotransfected with wild-type or mutant FKHR
FKHR [3] = test: G6 Pase promoter-reporter, FKHR coactivation; format: cell-based; details: PGC-1 cotransfected with FKHR

Molecule | G6 Pase mRNA levels [1] | PGC-1 mRNA levels [1] | PGC-1 induced expression of PEPCK and glucose-6-phosphatase [1] | PGC-1 in liver (Northern) (PGC-1) | activation of 3×IRS promoter-luciferase reporter (FKHR [2]) | coactivation on wild type G6 Pase promoter-reporter (FKHR [3])
insulin | downregulated | do not change | downregulates | – | – | –
CN(N=O)C(=O)N[C@H]1C(O)O[C@H](CO)[C@@H](O)[C@@H]1O (mixture of isomers) [streptozotocin] | – | – | – | consistently increased | – | –
constitutively active FKHR: FKHR with three phosphorylatable amino acids changed to alanine (protein, UniProt Q12778 1-655, looked up, variant T24A S256A S319A) Forkhead box protein O1: MAEAPQVVEIDPDFEPLPRPRSCAWPLPRPEFSQSNSATSSPAPSGSAAANPDAAAGLPSASAAAVSADFMSNLSLLEESEDFPQAPGSVAAAVAAAAAAAATGGLCGDFQGPEAGCLHPAPPQPPPPGPLSQHPPVPPAAAGPLAGQPRKSSSSRRNAWGNLSYADLITKAIESSAEKRLTLSQIYEWMVKSVPYFKDKGDSNSSAGWKNSIRHNLSLHSKFIRVQNEGTGKSSWWMLNPEGGKSGKSPRRRAAAMDNNSKFAKSRSRAAKKKASLQSGQEGAGDSPGSQFSKWPASPGSHSNDDFDNWSTFRPRTSANASTISGRLSPIMTEQDDLGEGDVHSMVYPPSAAKMASTLPSLSEISNPENMENLLDNLNLLSSPTSLTVSTQSSPGTMMQQTPCYSFAPPNTSLNSPSPNYQKYTYGQSSMSPLPQMPIQTLQDNKSSYGGMSQYNCAPGLLKELLTSDSPPHNDIMTPVDPGVAQPNSRVLGQNVMMGPNSVMSTYGSQASHNKMMNPSSHTHPGHAQQTSAVNGRPLPHTVSTMPHTSGMNRLTQVKTPVQVPLPHPMQMSALGGYSSVSSCNGYGRMGLLHQEKLPSDLDGMFIERLDCDMESIIRNDLMDGDTLDFNFDNVLPNQSFPHSVKTTTHSWVSG | – | – | unchanged | – | increased activation | further increased
